Test results as given in paper PMC12368479, “Inhibition of the Clathrin Terminal Domain—Amphiphysin Protein–Protein Interaction. Probing the Pitstop 2 Aromatic Moiety” (Chemmedchem, 2025).
“And” between values parts separate entries of the source, which are not always exact repeats. Equal entries are not always repeated. Where two headings read alike, the source gives them in different places.

Key:
[1] = molecular target: T1, clathrin heavy chain NTD (amino acids 1–364) – amphiphysin 1 B/C domain protein–protein interaction (NTD‐PPI) (Homo sapiens, UniProt Q00610); experiment: ELISA-based clathrin inhibitor binding assay (NTD-PPI)
T1 construct: GST‐tagged clathrin heavy chain NTD (amino acids 1–364); made in house
T1 sequence (Q00610 1-364): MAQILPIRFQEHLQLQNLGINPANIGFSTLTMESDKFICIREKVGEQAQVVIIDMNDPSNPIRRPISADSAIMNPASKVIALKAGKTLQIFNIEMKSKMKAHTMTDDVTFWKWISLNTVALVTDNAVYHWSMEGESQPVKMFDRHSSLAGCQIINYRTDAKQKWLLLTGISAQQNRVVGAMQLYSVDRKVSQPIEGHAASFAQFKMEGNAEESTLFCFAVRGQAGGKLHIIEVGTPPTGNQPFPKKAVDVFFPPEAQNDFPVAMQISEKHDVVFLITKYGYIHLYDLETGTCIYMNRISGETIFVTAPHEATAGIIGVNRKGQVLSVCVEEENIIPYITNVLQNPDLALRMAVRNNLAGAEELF
Method: The clathrin inhibitor assay was based inhibition of protein–protein interaction (PPI) between clathrin and amphiphysin as described in our previous report.^[ [45], [54] ^] Bacterially expressed recombinant purified His6‐tagged amphiphysin 1 B/C domain (which comprises both the clathrin and the AP‐2 binding sites, amino acids 250‐578^[ [55] ^]) in screening buffer (20 mM HEPES, pH 7.4, 50 mM NaCl, 1 mM DTT, 1 mM PMSF) was added to a 384 well ELISA plate (Corning Maxisorp 3700) and bound to the plastic for 1 h at room temperature. […] Following extensive washes (with 20 mM HEPES, pH 7.4, 50 mM NaCl, 0.05% Tween 20), chemical compounds diluted in DMSO (10 μL) were added and incubated together with bacterially expressed recombinant GST‐tagged clathrin heavy chain NTD (amino acids 1–364) for 1 h at room temperature in screening buffer. After 3 washes, horseradish peroxidase‐coupled anti‐GST antibodies were added in screening buffer and the plate incubated for 40 min at room temperature. Following additional washes, 50 μL TMB (3,3′,5,5′‐tetramethylbenzidine) (Pierce Biotechnology) chromogenic substrate of horseradish peroxidase was added, and the plate was incubated for 10 min before the reaction was terminated by adding 50 μL 1N sulfuric acid to produce a yellow colour. The amount of bound protein was determined by spectrophotometric measurement in a plate reader. Relative binding was calculated as a percentage of DMSO control.

[2] = molecular target: T2, full length human Dynamin I (Homo sapiens, UniProt Q05193); experiment: Dynamin GTPase activity, Malachite Green phosphate detection assay; format: biochemical
T2 construct: full length human Dynamin I expressed in Sf21 insect cells; made in house; host or cells: Sf21 insect cells
T2 sequence (Q05193 1-864): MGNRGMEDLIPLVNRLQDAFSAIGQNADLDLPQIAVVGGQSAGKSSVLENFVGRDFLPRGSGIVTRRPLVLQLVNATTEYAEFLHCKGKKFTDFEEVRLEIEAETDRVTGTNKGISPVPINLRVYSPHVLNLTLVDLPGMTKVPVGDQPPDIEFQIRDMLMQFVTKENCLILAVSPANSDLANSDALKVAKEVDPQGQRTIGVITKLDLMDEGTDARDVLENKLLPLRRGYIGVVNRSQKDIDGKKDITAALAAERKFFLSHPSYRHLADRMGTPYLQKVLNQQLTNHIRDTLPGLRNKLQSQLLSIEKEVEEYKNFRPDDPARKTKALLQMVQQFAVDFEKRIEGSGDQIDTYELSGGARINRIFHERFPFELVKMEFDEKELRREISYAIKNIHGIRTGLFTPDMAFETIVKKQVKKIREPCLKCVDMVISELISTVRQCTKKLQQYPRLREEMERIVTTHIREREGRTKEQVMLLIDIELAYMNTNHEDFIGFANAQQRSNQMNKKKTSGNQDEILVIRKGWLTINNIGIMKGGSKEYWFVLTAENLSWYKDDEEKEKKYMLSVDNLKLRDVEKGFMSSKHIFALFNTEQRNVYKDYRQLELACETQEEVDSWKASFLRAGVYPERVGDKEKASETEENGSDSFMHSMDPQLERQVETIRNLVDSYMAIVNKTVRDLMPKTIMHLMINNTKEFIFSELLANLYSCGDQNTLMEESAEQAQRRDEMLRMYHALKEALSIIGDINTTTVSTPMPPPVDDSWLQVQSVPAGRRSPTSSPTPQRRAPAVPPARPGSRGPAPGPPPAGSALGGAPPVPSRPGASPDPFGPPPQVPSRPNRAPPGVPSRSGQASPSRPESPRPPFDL
Method: Dynamin GTPase activity was determined in vitro using the Malachite Green phosphate detection absorbance‐based assay within a 96‐well plate format as described previously. The enzyme source was full length human Dynamin I expressed in Sf21 insect cells and affinity‐purified on GST‐Amph2‐SH3 (rat Amphiphysin 2 (494–588)).^[ [56] ^]

[3] = system: transferrin uptake (CME) in U2OS osteosarcoma cells; experiment: Clathrin-mediated endocytosis assay: transferrin (Tfn) uptake in U2OS cells; format: cell-based; conditions: for IC50 / inhibition at 5 µM / inhibition at 50 µM: Homo sapiens, U2OS; for IC50: Table 5, inhibition of transferrin‐red uptake in U2OS cells, '–'/NA = not active at 100 μM; for inhibition at 5 µM: read-out: 2-point CME (% Inhibition) 5 µM; for inhibition at 50 µM: read-out: 2-point CME (% Inhibition) 50 µM
Method: Using our previously reported CME assay in U2OS cells, the ability of these compounds to block endocytosis was examined (Table 5 ).^[ [48], [49] ^]
CME was examined by a high‐throughput, quantitative assay for measuring transferrin (Tfn) uptake in U2OS osteosarcoma cells, based on methods described previously.^[ [48] ^]
Compounds were made up fresh from powder stock just prior to commencing the assay, and stock solutions were stored at −20 °C for several months.

[4] = Table 5, ELISA, read-out: NTD‐PPI IC50
[5] = Table 1, library 1, n = 1 unless noted (19: n = 2), '–' = not active at 150 μM, read-out: Dyn 1 IC50
[6] = Table 5, dynamin GTPase, n = 1 or n = 2 as footnoted, NA = not active at 100 μM, read-out: Dynamin 1 IC50
[7] = Table 3, library 3, n = 1 unless otherwise stated (41, 42: n = 2), '–' = not active at 100 μM, read-out: Dynamin 1 IC50
[8] = Table S1, preliminary (n=1) unless otherwise noted, NA = not active, includes IC50 > 150 μM, read-out: Dynamin 1 IC50
[9] = Table 4, library 4, ELISA, average of duplicate measurements (n = 2), read-out: NTD‐PPI IC50
[10] = Table 4, library 4, n = 1 or n = 2 as footnoted, '–' = not active at 100 μM, read-out: Dynamin 1 IC50
[11] = values quoted in running text (section 2.2), read-out: Dynamin IC50

| SMILES | IC50 [1, 4] [µM] | IC50 [2, 6] [µM] | IC50 [3] [µM] | IC50 [2, 8] [µM] | IC50 [1, 9] [µM] | IC50 ([1]; read-out: NTD‐PPI IC50 (ELISA)) | IC50 [2, 10] [µM] | CME activity compared with Pitstop 2 ([3]; U2OS cells, in words) | inhibition at 5 µM [3] [%] | inhibition at 50 µM [3] [%] | further results |
| --- | --- | --- | --- | --- | --- | --- | --- | --- | --- | --- | --- |
| O=C1N=C(NS(=O)(=O)c2cccc3ccccc23)S/C1=C\c1ccc([N+](=O)[O-])cc1 [compound 13, (Z)‐N‐(5‐(4‐nitrobenzylidene)‐4‐oxo‐4,5‐dihydrothiazol‐2‐yl)naphthalene‐1‐sulfonamide] | 5.2 | 55.8 | ~14.6 |  |  |  |  | comparable |  |  | IC50 ([1]; Table 1, library 1, ELISA, average of duplicate measurements (n=2), read-out: NTD‐PPI IC50): 5.2 µM; IC50 [2, 5]: ~56 µM |
| O=C1N=C(NS(=O)(=O)c2cccc3ccccc23)SC1=Cc1ccc(-c2ccccc2)cc1 [compound 18, N‐(5‐([1,1'‐biphenyl]‐4‐ylmethylene)‐4‐oxo‐4,5‐dihydrothiazol‐2‐yl)naphthalene‐1‐sulfonamide] | 1.4 | 85.3 | ~43.1 |  |  |  |  |  |  |  | IC50 [2, 5]: 85 µM |
| O=C1N=C(NS(=O)(=O)c2cccc3ccccc23)S/C1=C\C1CCCC1 [compound 41, (Z)‐N‐(5‐(cyclopentylmethylene)‐4‐oxo‐4,5‐dihydrothiazol‐2‐yl)naphthalene‐1‐sulfonamide] |  |  |  | > 150 |  |  |  |  | 11 |  | IC50 [2, 7]: > 100 µM |
| CCCC/C=C1\SC(NS(=O)(=O)c2cccc3ccccc23)=NC1=O [compound 42, (Z)‐N‐(4‐oxo‐5‐pentylidene‐4,5‐dihydrothiazol‐2‐yl)naphthalene‐1‐sulfonamide] |  |  |  | > 150 |  |  |  |  | 0 | 31 | IC50 ([1]; Table 3, library 3, ELISA, average of duplicate measurements (n = 2), read-out: NTD‐PPI IC50): 6.5 µM; IC50 [2, 7]: > 100 µM |
| O=C1N=C(NS(=O)(=O)c2cccc3ccccc23)S/C1=C\c1ccc2c(c1)OCCO2 [compound 54, (Z)‐N‐(5‐((2,3‐dihydrobenzo[b][1,4]dioxin‐6‐yl)methylene)‐4‐oxo‐4,5‐dihydrothiazol‐2‐yl)naphthalene‐1‐sulfonamide] | 1.2 | 60.1 ± 8.6 | ~35 |  | 1.2 | 1.16 µM | 60.1 ± 8.6 | threefold decrease |  |  | fold activity increase (NTD‐PPI) relative to 56 ([1]; ELISA): > 3 fold; IC50 [2, 11]: 60 µM |
| O=C1N=C(NS(=O)(=O)c2cccc3ccccc23)S/C1=C\C1=Cc2ccccc2OC1 [compound 55, (Z)‐N‐(5‐((2H‐chromen‐3‐yl)methylene)‐4‐oxo‐4,5‐dihydrothiazol‐2‐yl)naphthalene‐1‐sulfonamide] |  |  |  |  |  |  | 69.3 ± 7.1 |  | 0 | 40 | IC50 [2, 11]: 69 µM |
| O=C1N=C(NS(=O)(=O)c2cccc3ccccc23)S/C1=C\c1ccc2c(c1)OCO2 [compound 56, (Z)‐N‐(5‐(benzo[d][1,3]dioxol‐5‐ylmethylene)‐4‐oxo‐4,5‐dihydrothiazol‐2‐yl)naphthalene‐1‐sulfonamide] | 3.2 |  | 19.4 ± 10.5 |  | 3.2 | < 5 µM and 4 µM | > 100 | comparable |  |  | NTD‐PPI activity relative to 54 ([1]; ELISA, in words): threefold less active; CME inhibition relative to dihydrobenzofuran 57 ([3]; U2OS cells, in words): threefold increase |

More lines, main results first:

| IC50 [1, 4] [µM] | IC50 [2, 6] [µM] | IC50 [3] [µM] | IC50 [2, 8] [µM] | IC50 [1, 9] [µM] | IC50 ([1]; read-out: NTD‐PPI IC50 (ELISA)) | IC50 [2, 10] [µM] | SMILES | CME activity compared with Pitstop 2 ([3]; U2OS cells, in words) | inhibition at 5 µM [3] [%] | inhibition at 50 µM [3] [%] | further results |
| --- | --- | --- | --- | --- | --- | --- | --- | --- | --- | --- | --- |
|  | ~69.3 | 16.8 ± 7.9 |  |  |  | ~69.3 | O=C1N=C(NS(=O)(=O)c2cccc3ccccc23)S/C1=C\c1ccc2nsnc2c1 [compound 58, (Z)‐N‐(5‐(benzo[c][1,2,5]thiadiazol‐5‐ylmethylene)‐4‐oxo‐4,5‐dihydrothiazol‐2‐yl)naphthalene‐1‐sulfonamide] | comparable |  |  |  |
|  |  |  |  | 3.66 |  | 83.8 ± 10.7 | O=C1N=C(NS(=O)(=O)c2cccc3ccccc23)S/C1=C\c1ccc2[nH]ccc2c1 [compound 59, (Z)‐N‐(5‐((1H‐indol‐5‐yl)methylene)‐4‐oxo‐4,5‐dihydrothiazol‐2‐yl)naphthalene‐1‐sulfonamide] |  | 0 | 83 | IC50 ([1]; Table S1, average of duplicate measurements (n=2), read-out: NTD-PPI IC50): 3.7 µM |
|  |  |  | > 150 | 3.2 |  |  | O=C1N=C(NS(=O)(=O)c2cccc3ccccc23)S/C1=C\c1c[nH]c2ccccc12 [compound 60, (Z)‐N‐(5‐((1H‐indol‐3‐yl)methylene)‐4‐oxo‐4,5‐dihydrothiazol‐2‐yl)naphthalene‐1‐sulfonamide] |  | 0 | 38 |  |
|  |  |  | > 150 | 3.05 | 3 µM |  | Cn1cc(/C=C2\SC(NS(=O)(=O)c3cccc4ccccc34)=NC2=O)c2ccccc21 [compound 61, (Z)‐N‐(5‐((1‐methyl‐1H‐indol‐3‐yl)methylene)‐4‐oxo‐4,5‐dihydrothiazol‐2‐yl)naphthalene‐1‐sulfonamide] |  | 9 | 69 |  |
|  |  |  | > 150 | 2.37 | 2.4 µM | > 100 | Cc1[nH]c2ccccc2c1/C=C1\SC(NS(=O)(=O)c2cccc3ccccc23)=NC1=O [compound 62, (Z)‐N‐(5‐((2‐methyl‐1H‐indol‐3‐yl)methylene)‐4‐oxo‐4,5‐dihydrothiazol‐2‐yl)naphthalene‐1‐sulfonamide] |  | 6 | 71 |  |
|  |  |  | > 150 |  |  | > 100 | O=C1N=C(NS(=O)(=O)c2cccc3ccccc23)S/C1=C\c1c[nH]c2ccc(Cl)cc12 [compound 66, (Z)‐N‐(5‐((5‐chloro‐1H‐indol‐3‐yl)methylene)‐4‐oxo‐4,5‐dihydrothiazol‐2‐yl)naphthalene‐1‐sulfonamide] |  | 2 |  |  |
